System: HCV Genotype 3
Test: Patient-derived monocytes fused to hepatocytes, HCV RNA by qPCR
Format: cell-based
Settings: fused cells from patients with genotype 3 HCV; 3 to 7 days with telaprevir; FIG. 8
Description: Patient derived monocytes from patients with genotype 1 and genotype 3 HCV were taken and incubated for a variety of different times (ranging from 3 to 7 days) with telaprevir at concentrations known to inhibit HCV RNA. The amount of HCV RNA was assessed using a standard qPCR technique and is expressed as the raw Ct value from the Corbett Rotorgene.
CD14+ monocytes were positively selected from total PBMCs by magnetic cell separation, according to the manufacturer's instructions. The CD14+ cells obtained were counted and pelleted with an equal number of HuH 7.5 cells. The cell pellet was resuspended in pre-warmed polyethylene glycol 1500 (PEG 1500, Roche) over 1 minute then incubated at 37° C. for 2 minutes. […]
RNA was extracted from fused cells immediately after fusion and following a 5 day incubation using TRIzol reagent (Invitrogen). Total RNA obtained was quantified using the RiboGreen assay (Invitrogen). HCV RNA was measured by reverse transcription-quantitative PCR (RT-qPCR) using the Quantitect viral nucleic acid detection kit (Qiagen) in 20 μL volumes with a TaqMan primer and probe for HCV detection (Applied Biosystems). 10-fold serial dilutions of PCR product corresponding to a 319 nucleotide segment between the 5′untranslated region and E1 region of the HCV genome were included as a quantitative standard. […]

CCC[C@H](NC(=O)[C@@H]1[C@H]2CCC[C@H]2CN1C(=O)[C@@H](NC(=O)[C@@H](NC(=O)c1cnccn1)C1CCCCC1)C(C)(C)C)C(=O)C(=O)NC1CC1 [telaprevir]
replication of HCV (HCV RNA): not inhibited

— patent US20150210984A1, “METHOD FOR R[…] IN VITRO” (priority 2011, published 2015)
